Results taken from ChEMBL document CHEMBL3885861, “Open TG-GATES”.

Species on record: Rattus norvegicus
Test: Open TG-GATES - Regimen: Single
Type: toxicity, organism-based, Sprague-Dawley
Design: regimen Single, gender Male, age 6 weeks
Conditions: in vivo, po, 20 mg/kg, route gavage, dose level Low; for APTT / Bas / Eos / Fbg / Hb / Ht / Lym / MCH / MCHC / MCV / Mono / Neu / PT / Plat / RBC / Ret / WBC: tissue Blood; for KIDNEY_L / KIDNEY_R / KIDNEY_TOTAL: tissue Kidney; for LIVER: tissue Liver; for A/G / ALP / ALT / AST / BUN / CRE / Ca / Cl / DBIL / GLC / IP / K / LDH / Na / PL / RALB / TBIL / TC / TG / TP / gamma-GTP: tissue Plasma

CCc1oc2ccccc2c1C(=O)c1cc(Br)c(O)c(Br)c1 [BENZBROMARONE]
TERMINAL_BW (3 h): 212.8 g | APTT (3 h): 16.3 s | Bas (3 h): 0% | Eos (3 h): 0.6% | Fbg (3 h): 237.6 mg/dL | Hb (3 h): 13.8 g/dL | Ht (3 h): 41% | Lym (3 h): 81.2% | MCH (3 h): 21.7 pg | MCHC (3 h): 33.6% | MCV (3 h): 64.6 fL | Mono (3 h): 8.4% | Neu (3 h): 9.8% | PT (3 h): 11.8 s | Plat (3 h): 106.4 x10_4/uL | RBC (3 h): 634.6 x10_4/ul | Ret (3 h): 7.7% | WBC (3 h): 91.2 x10_2/uL | KIDNEY_L (3 h): 0.9 g | KIDNEY_R (3 h): 1 g | KIDNEY_TOTAL (3 h): 1.9 g | LIVER (3 h): 10.1 g | A/G (3 h): 2.3 | ALP (3 h): 902 IU/L | ALT (3 h): 33.6 IU/L | AST (3 h): 62 IU/L | BUN (3 h): 11.2 mg/dL | CRE (3 h): 0.6 mg/dL | Ca (3 h): 10.7 mg/dL | Cl (3 h): 103.4 meq/L | DBIL (3 h): 0.034 mg/dL | GLC (3 h): 195.4 mg/dL | IP (3 h): 9.5 mg/dL | K (3 h): 4.8 meq/L | LDH (3 h): 81.6 IU/L | Na (3 h): 139 meq/L | PL (3 h): 147 mg/dL | RALB (3 h): 3.9 g/dL | TBIL (3 h): 0.3 mg/dL | TC (3 h): 79.6 mg/dL | TG (3 h): 81.2 mg/dL | TP (3 h): 5.6 g/dL | gamma-GTP (3 h): 1 IU/L | TERMINAL_BW (6 h): 212.2 g | APTT (6 h): 16.1 s | Bas (6 h): 0% | Eos (6 h): 1.2% | Fbg (6 h): 228 mg/dL | Hb (6 h): 13.8 g/dL | Ht (6 h): 41.2% | Lym (6 h): 79.4% | MCH (6 h): 21.6 pg | MCHC (6 h): 33.5% | MCV (6 h): 64.5 fL | Mono (6 h): 7% | Neu (6 h): 12.6% | PT (6 h): 12.1 s | Plat (6 h): 113.8 x10_4/uL | RBC (6 h): 639.4 x10_4/ul | Ret (6 h): 7.7% | WBC (6 h): 111.3 x10_2/uL | KIDNEY_L (6 h): 1 g | KIDNEY_R (6 h): 1 g | KIDNEY_TOTAL (6 h): 2 g | LIVER (6 h): 9.9 g | A/G (6 h): 2.2 | ALP (6 h): 710.4 IU/L | ALT (6 h): 28.8 IU/L | AST (6 h): 59.4 IU/L | BUN (6 h): 11.2 mg/dL | CRE (6 h): 0.4 mg/dL | Ca (6 h): 10.5 mg/dL | Cl (6 h): 103.2 meq/L | DBIL (6 h): 0.002 mg/dL | GLC (6 h): 183 mg/dL | IP (6 h): 9.6 mg/dL | K (6 h): 5.1 meq/L | LDH (6 h): 90 IU/L | Na (6 h): 138.2 meq/L | PL (6 h): 136.4 mg/dL | RALB (6 h): 3.8 g/dL | TBIL (6 h): 0.4 mg/dL | TC (6 h): 75 mg/dL | TG (6 h): 75.4 mg/dL | TP (6 h): 5.6 g/dL | gamma-GTP (6 h): 1 IU/L | TERMINAL_BW (9 h): 210.1 g | APTT (9 h): 15.6 s | Bas (9 h): 0% | Eos (9 h): 1% | Fbg (9 h): 234.6 mg/dL | Hb (9 h): 13.8 g/dL | Ht (9 h): 40.9% | Lym (9 h): 84.2% | MCH (9 h): 22.1 pg | MCHC (9 h): 33.8% | MCV (9 h): 65.5 fL | Mono (9 h): 6.2% | Neu (9 h): 8.8% | PT (9 h): 12.2 s | Plat (9 h): 113.6 x10_4/uL | RBC (9 h): 625.2 x10_4/ul | Ret (9 h): 7.6% | WBC (9 h): 103.5 x10_2/uL | KIDNEY_L (9 h): 1 g | KIDNEY_R (9 h): 1 g | KIDNEY_TOTAL (9 h): 1.9 g | LIVER (9 h): 9.3 g | A/G (9 h): 2.1 | ALP (9 h): 840.2 IU/L | ALT (9 h): 29.6 IU/L | AST (9 h): 60 IU/L | BUN (9 h): 10 mg/dL | CRE (9 h): 0.5 mg/dL | Ca (9 h): 10.1 mg/dL | Cl (9 h): 104.2 meq/L | DBIL (9 h): 0.008 mg/dL | GLC (9 h): 194.4 mg/dL | IP (9 h): 10.5 mg/dL | K (9 h): 4.8 meq/L | LDH (9 h): 86.6 IU/L | Na (9 h): 138.4 meq/L | PL (9 h): 119.4 mg/dL | RALB (9 h): 3.8 g/dL | TBIL (9 h): 0.4 mg/dL | TC (9 h): 67.8 mg/dL | TG (9 h): 44 mg/dL | TP (9 h): 5.7 g/dL | gamma-GTP (9 h): 1 IU/L | TERMINAL_BW (24 h): 225.2 g | APTT (24 h): 16.5 s | Bas (24 h): 0% | Eos (24 h): 1.6% | Fbg (24 h): 229 mg/dL | Hb (24 h): 13.9 g/dL | Ht (24 h): 41.3% | Lym (24 h): 78.2% | MCH (24 h): 21.8 pg | MCHC (24 h): 33.7% | MCV (24 h): 64.8 fL | Mono (24 h): 7.8% | Neu (24 h): 13% | PT (24 h): 12.1 s | Plat (24 h): 112.8 x10_4/uL | RBC (24 h): 636.8 x10_4/ul | Ret (24 h): 7.2% | WBC (24 h): 103.7 x10_2/uL | KIDNEY_L (24 h): 1 g | KIDNEY_R (24 h): 1 g | KIDNEY_TOTAL (24 h): 2 g | LIVER (24 h): 11.3 g | A/G (24 h): 2 | ALP (24 h): 915.4 IU/L | ALT (24 h): 37 IU/L | AST (24 h): 62.6 IU/L | BUN (24 h): 18.6 mg/dL | CRE (24 h): 0.6 mg/dL | Ca (24 h): 10.5 mg/dL | Cl (24 h): 105.2 meq/L | DBIL (24 h): 0.04 mg/dL | GLC (24 h): 184.2 mg/dL | IP (24 h): 7.8 mg/dL | K (24 h): 5.4 meq/L | LDH (24 h): 105.4 IU/L | Na (24 h): 138.4 meq/L | PL (24 h): 161.2 mg/dL | RALB (24 h): 4 g/dL | TBIL (24 h): 0.3 mg/dL | TC (24 h): 83.2 mg/dL | TG (24 h): 131 mg/dL | TP (24 h): 6 g/dL | gamma-GTP (24 h): 1.4 IU/L
